# Laboratory results from patent US8673929B2, “4,6-di- and 2,4,6-trisubstituted quinazoline derivatives and pharmaceutical compositions useful for treating viral infections” (priority 2006, dated 2014).
# How the values were obtained:
# [1] = system: HCV replicon; assay: Anti-HCV replicon assay, EC50 (luciferase readout); assay type: cell-based; settings: Hepatitis C virus, 72 h; Huh-7 HCV replicon cells, 3 days incubation, luciferase luminescence
# Procedure, shortened: (§1)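 Huh-7 cells harbouring an HCV replicon (6000/well) incubated 3 days at 37° C with 3-fold serially diluted compound (0.5% DMSO final where used). EC50 from luciferase luminescence of lysed cells; CC50 from CellTiter-Glo luminescence in parallel plates.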
# [2] = CC50 assay in the anti-HCV replicon assay (CellTiter-Glo); assay type: cell-based, human; settings: human, Huh-7 hepatoma cells harbouring an HCV replicon; Huh-7 HCV replicon cells, 3 days incubation, CellTiter-Glo luminescence
# Procedure, shortened: as §1
SMILES,EC50 [1] [µM],CC50 at 3 days [2] [µM]
"CCOc1nc(N)nc2ccc(-c3ccc(C(=O)NCc4ccco4)cc3)cc12 [Example 157, 4-(2-Amino-4-ethoxy-quinazolin-6-yl)-N-furan-2-ylmethyl-benzamide]",1 to 10,> 20
"CCOc1nc(N)nc2ccc(-c3ccc(C(=O)N4CCSC4)cc3)cc12 [Example 158, [4-(2-Amino-4-ethoxy-quinazolin-6-yl)-phenyl]-thiazolidin-3-yl-methanone]",1 to 10,> 20
CCOc1nc(N)nc2ccc(-c3ccc(C(=O)NCCN(C)C)cc3)cc12 [Example 159],< 0.3,< 10
"CCOc1nc(N)nc2ccc(-c3ccc(C(=O)Nc4ccccn4)cc3)cc12 [Example 160, 4-(2-Amino-4-ethoxy-quinazolin-6-yl)-N-pyridin-2-yl-benzamide]",1 to 10,> 20
"CCOc1nc(N)nc2ccc(-c3ccc(C(=O)Nc4ccc(F)cc4)cc3)cc12 [Example 161, 4-(2-Amino-4-ethoxy-quinazolin-6-yl)-N-(4-fluoro-phenyl)-benzamide]",0.3 to 1,< 10
"CCOc1nc(N)nc2ccc(-c3ccc(C(=O)N4CCSCC4)cc3)cc12 [Example 162, [4-(2-Amino-4-ethoxy-quinazolin-6-yl)-phenyl]-thiomorpholin-4-yl-methanone]",1 to 10,> 20
"CCOc1nc(N)nc2ccc(-c3ccc(C(=O)NC4=NCCS4)cc3)cc12 [Example 163, 4-(2-Amino-4-ethoxy-quinazolin-6-yl)-N-(4,5-dihydro-thiazol-2-yl)-benzamide]",1 to 10,> 20
"CCOc1nc(N)nc2ccc(-c3ccc(C(=O)NC)c(Cl)c3)cc12 [Example 164, 4-(2-Amino-4-ethoxy-quinazolin-6-yl)-2-chloro-N-methyl-benzamide]",1 to 10,> 20
"CCOc1nc(N)nc2ccc(-c3ccc(C(=O)NC4CC4)c(Cl)c3)cc12 [Example 165, 4-(2-Amino-4-ethoxy-quinazolin-6-yl)-2-chloro-N-cyclopropyl-benzamide]",1 to 10,> 20
"CCOc1nc(N)nc2ccc(-c3cccc(O)c3)cc12 [Example 166, 3-(2-Amino-4-ethoxy-quinazolin-6-yl)-phenol]",1 to 10,10 to 20
"CCOc1nc(N)nc2ccc(-c3ccc(C(=O)NC4CC4)cc3)cc12 [Example 167, 4-(2-Amino-4-ethoxy-quinazolin-6-yl)-N-cyclopropyl-benzamide]",< 0.3,> 20
"CCOc1nc(N)nc2ccc(-c3cccc(C(=O)NC)c3)cc12 [Example 168, 3-(2-Amino-4-ethoxy-quinazolin-6-yl)-N-methyl-benzamide]",1 to 10,> 20
"CC(C)Oc1nc(N)nc2ccc(-c3ccc(C(=O)N4CCCCC4)cc3)cc12 [Example 169, [4-(2-Amino-4-isopropoxy-quinazolin-6-yl)-phenyl]-piperidin-1-yl-methanone]",1 to 10,> 20
"CC(C)Oc1nc(N)nc2ccc(-c3ccc(C(=O)NCc4ccccc4)cc3)cc12 [Example 170, 4-(2-Amino-4-isopropoxy-quinazolin-6-yl)-N-benzyl-benzamide]",0.3 to 1,< 10
"CC(C)CNC(=O)c1ccc(-c2ccc3nc(N)nc(OC(C)C)c3c2)cc1 [Example 171, 4-(2-Amino-4-isopropoxy-quinazolin-6-yl)-N-isobutyl-benzamide]",0.3 to 1,10 to 20
"CC(C)Oc1nc(N)nc2ccc(-c3ccc(C(=O)NC4CCCCC4)cc3)cc12 [Example 172, 4-(2-Amino-4-isopropoxy-quinazolin-6-yl)-N-cyclohexyl-benzamide]",0.3 to 1,< 10
"CCCCNC(=O)c1ccc(-c2ccc3nc(N)nc(OC(C)C)c3c2)cc1 [Example 173, 4-(2-Amino-4-isopropoxy-quinazolin-6-yl)-N-butyl-benzamide]",< 0.3,< 10
"CC(C)Oc1nc(N)nc2ccc(-c3ccc(C(=O)NC(C)(C)C)cc3)cc12 [Example 174, 4-(2-Amino-4-isopropoxy-quinazolin-6-yl)-N-tert-butyl-benzamide]",0.3 to 1,10 to 20
"CC(C)Oc1nc(N)nc2ccc(-c3ccc(C(=O)NC4CCCC4)cc3)cc12 [Example 175, 4-(2-Amino-4-isopropoxy-quinazolin-6-yl)-N-cyclopentyl-benzamide]",< 0.3,< 10
"CC(C)NC(=O)c1ccc(-c2ccc3nc(N)nc(OC(C)C)c3c2)cc1 [Example 176, 4-(2-Amino-4-isopropoxy-quinazolin-6-yl)-N-isopropyl-benzamide]",< 0.3,10 to 20
"CONC(=O)c1ccc(-c2ccc3nc(N)nc(OC(C)C)c3c2)cc1 [Example 177, 4-(2-Amino-4-isopropoxy-quinazolin-6-yl)-N-methoxy-benzamide]",< 0.3,10 to 20
"CC(C)Oc1nc(N)nc2ccc(-c3ccc(C(=O)NCCN(C)C)cc3)cc12 [Example 178, 4-(2-Amino-4-isopropoxy-quinazolin-6-yl)-N-(2-dimethylamino-ethyl)-benzamide]",< 0.3,< 10
"CC(C)Oc1nc(N)nc2ccc(-c3ccc(C(=O)Nc4ccc(F)cc4)cc3)cc12 [Example 179, 4-(2-Amino-4-isopropoxy-quinazolin-6-yl)-N-(4-fluoro-phenyl)-benzamide]",0.3 to 1,< 10
"CC(C)Oc1nc(N)nc2ccc(-c3ccc(C(=O)N4CCSCC4)cc3)cc12 [Example 180, [4-(2-Amino-4-isopropoxy-quinazolin-6-yl)-phenyl]-thiomorpholin-4-yl-methanone]",1 to 10,10 to 20
"CC(C)Oc1nc(N)nc2ccc(-c3ccc(C(=O)NC4=NCCS4)cc3)cc12 [Example 181, 4-(2-Amino-4-isopropoxy-quinazolin-6-yl)-N-(4,5-dihydro-thiazol-2-yl)-benzamide]",0.3 to 1,10 to 20
"CNC(=O)c1ccc(-c2ccc3nc(N)nc(OC(C)C)c3c2)cc1Cl [Example 182, 4-(2-Amino-4-isopropoxy-quinazolin-6-yl)-2-chloro-N-methyl-benzamide]",< 0.3,> 20
"CC(C)Oc1nc(N)nc2ccc(-c3ccc(C(=O)NC4CC4)c(Cl)c3)cc12 [Example 183, 4-(2-Amino-4-isopropoxy-quinazolin-6-yl)-2-chloro-N-cyclopropyl-benzamide]",0.3 to 1,> 20
"CC(C)Oc1nc(N)nc2ccc(-c3cccc(O)c3)cc12 [Example 184, 3-(2-Amino-4-isopropoxy-quinazolin-6-yl)-phenol]",0.3 to 1,< 10
"CC(C)Oc1nc(N)nc2ccc(-c3ccc(C(=O)NC4CC4)cc3)cc12 [Example 185, 4-(2-Amino-4-isopropoxy-quinazolin-6-yl)-N-cyclopropyl-benzamide]",< 0.3,< 10
"CNC(=O)c1cccc(-c2ccc3nc(N)nc(OC(C)C)c3c2)c1 [Example 186, 3-(2-Amino-4-isopropoxy-quinazolin-6-yl)-N-methyl-benzamide]",0.3 to 1,10 to 20
